What was measured:
[1] = Chemical stability of the compound assessed as half life; type: physicochemical
[2] = target: T1, 5-hydroxytryptamine receptor 3A (Homo sapiens, UniProt P46098); test: Binding affinity to 5HT3A receptor
T1 sequence (P46098 whole entry): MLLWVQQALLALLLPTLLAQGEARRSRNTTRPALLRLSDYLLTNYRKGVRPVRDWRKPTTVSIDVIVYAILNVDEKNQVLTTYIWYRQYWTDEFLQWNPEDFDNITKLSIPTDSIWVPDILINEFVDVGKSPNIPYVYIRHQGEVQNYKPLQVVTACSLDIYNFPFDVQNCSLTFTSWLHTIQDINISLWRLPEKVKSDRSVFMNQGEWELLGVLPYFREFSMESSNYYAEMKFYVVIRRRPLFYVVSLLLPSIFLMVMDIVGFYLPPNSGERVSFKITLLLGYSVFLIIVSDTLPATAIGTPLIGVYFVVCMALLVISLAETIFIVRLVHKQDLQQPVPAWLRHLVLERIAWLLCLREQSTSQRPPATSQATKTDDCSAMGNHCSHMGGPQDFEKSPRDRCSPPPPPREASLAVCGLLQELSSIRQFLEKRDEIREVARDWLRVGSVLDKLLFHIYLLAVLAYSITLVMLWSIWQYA

half-life [1] [h] | Ki [2] [pM] | SMILES
5 | – | CN1C2CCCC1CC(NC(=O)c1nn(C)c3ccccc13)C2 (stereo not drawn) [GRANISETRON]
38 | 31.6 | O=C1c2cccc3c2[C@H](CCC3)CN1[C@@H]1CN2CCC1CC2 [PALONOSETRON]

Source: ChEMBL document CHEMBL1275268, “Computational analysis of ligand recognition sites of homo- and heteropentameric 5-HT3 receptors” (Eur J Med Chem, 2010)
